Reference: paper PMC9448375 (Drug Delivery, 2022)

Key:
[1] = log P by shake-flask method; assay type: physicochemical; conditions: shake-flask n-octanol/distilled water, mutually pre-saturated; 25 °C, 24 h, 50 rpm; HPLC of INS in both phases; HIP complexes at INS:counterion 1:6; mean, n = 3
Procedure: The log P values of different HIP complexes were determined by the shake-flask method (Zhang et al., [2021]). Prior to the experiment, distilled water and n-octanol were poured into a separatory funnel, vigorously shaken, and then allowed to settle for 24 h to mutually saturate. Stock solutions of HIP complexes in the saturated n-octanol were prepared and mixed with pre-saturated distilled water at a 1:10 (vol/vol) ratio. INS was dissolved in saturated distilled water and then mixed with pre-saturated n-octanol. The tube was incubated at 25 °C for 24 h with continuous shaking (50 rpm) and allowed to separate for 1 h, after which it was centrifuged at 16,000g for 10 min. Afterward, samples from both phases were carefully analyzed by HPLC.

pepsin = target: T1, pepsin (Sus scrofa, UniProt P00791); experiment: Stability against GI enzymes in simulated gastric fluid (SGF); assay type: in vitro ADME; conditions: SGF: pepsin 2,000 U/mL in pH 1.2 solution, mixed 1:1 with sample (INS 0.2 mg/mL), 37 °C, 100 rpm, HPLC, n = 3
T1 construct: purchased Sigma–Aldrich Chemical Co. (St. Louis, MO, USA)
Procedure: Simulated gastric fluid (SGF) was prepared by adding pepsin to pH 1.2 solution to a concentration of 2,000 U/mL. Simulated intestinal fluid (SIF) was prepared by adding trypsin (5,000 BAEE U/mL), chymotrypsin (20 IU/mL), lipase (400 IU/mL), and bile salt (10 mM) to the Tris buffer (50 mM, pH 8.0). […] Then, 250 µL of either SGF or SIF was added to the 250 µL of each formulation for enzymatic degradation. The mixture was transferred to a shaking incubator (SI-900R; JeioTech, Daejeon, Korea) and incubated at 37 °C under shaking (100 rpm). Finally, […] of cooled 0.1% TFA in methanol was added at predetermined time points (0, 5, 15, 30, 60, and 120 min) to quench the enzymatic reaction. For intestinal enzyme study, the reaction was continued for 240 min. Finally, the amount of INS remaining in the obtained samples was quantified by HPLC, as described earlier.

[2] = test system: trypsin, chymotrypsin, lipase, bile salt; experiment: Stability against GI enzymes in simulated intestinal fluid (SIF); assay type: in vitro ADME; conditions: SIF: trypsin 5,000 BAEE U/mL, chymotrypsin 20 IU/mL, lipase 400 IU/mL, bile salt 10 mM, Tris 50 mM pH 8.0; mixed 1:1 with sample (INS 0.2 mg/mL); 37 °C, 100 rpm; 0–240 min; HPLC; first-order fit; n = 3
Procedure: Simulated intestinal fluid (SIF) was prepared by adding trypsin (5,000 BAEE U/mL), chymotrypsin (20 IU/mL), lipase (400 IU/mL), and bile salt (10 mM) to the Tris buffer (50 mM, pH 8.0). […] Then, 250 µL of either SGF or SIF was added to the 250 µL of each formulation for enzymatic degradation. The mixture was transferred to a shaking incubator (SI-900R; JeioTech, Daejeon, Korea) and incubated at 37 °C under shaking (100 rpm). Finally, 500 mL of cooled 0.1% TFA in methanol was added at predetermined time points (0, 5, 15, 30, 60, and 120 min) to quench the enzymatic reaction. For intestinal enzyme study, the reaction was continued for 240 min.

[3] = test system: streptozotocin-induced diabetic Sprague–Dawley rats; experiment: Pharmacodynamic study in diabetic rats (blood glucose level); assay type: in vivo, rat; conditions: for AAC0–8h (area above the blood glucose level curve, % of initial, 0–8 h) / BGLmin (minimum blood glucose level, % of initial levels) / Tmin (time to reach BGLmin): mean ± SD, n = 5–7
Procedure: To establish animal models of type 1 diabetes mellitus, male Sprague–Dawley rats were injected intraperitoneally with freshly prepared single doses of streptozotocin (60 mg/kg) dissolved in citrate buffer (0.1 M, pH 4.5). The successful induction of diabetes was corroborated by an increase in blood glucose levels after five days. Only the rats with fasting blood glucose levels higher than 250 mg/dL were considered diabetic.
All rats were fasted for 12 h before the experiment, with free access to water. […] Subsequently, blood samples were collected from the tail vein at different time intervals (0, 0.5, 1, 1.5, 2, 3, 4, 5, 6, and 8 h) and tested using a glucometer (GreenDoctor, GREENCROSS MEDIS Co., Chungnam, Korea). Based on the blood glucose level at 0 h (initial), each blood glucose level was converted to the relative level (% of initial). A value of 100% of the relative level was chosen as a reference point (upper limit) for the determination of the area above the blood glucose (% of initial)–time curve (AAC) values for decreased blood glucose levels.

T1 sequence (P00791 60-385): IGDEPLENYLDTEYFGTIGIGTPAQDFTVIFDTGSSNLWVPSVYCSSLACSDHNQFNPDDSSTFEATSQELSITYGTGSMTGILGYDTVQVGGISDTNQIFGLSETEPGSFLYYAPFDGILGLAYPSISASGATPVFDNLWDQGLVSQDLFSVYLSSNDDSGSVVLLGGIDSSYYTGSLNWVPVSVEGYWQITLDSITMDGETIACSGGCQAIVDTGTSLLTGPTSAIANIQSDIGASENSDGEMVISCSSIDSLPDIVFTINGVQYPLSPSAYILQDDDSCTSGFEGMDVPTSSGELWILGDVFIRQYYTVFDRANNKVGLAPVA

Substance: Insulin
- log P [1]: –1.61
- Rate constant of INS degradation, simulated gastric fluid (pepsin; 0–120 min, first-order fit): 0.1854 min⁻¹
- Half-life of INS, simulated gastric fluid (pepsin): 3.74 min
- Rate constant of INS degradation, simulated intestinal fluid [2]: 0.1980 min⁻¹
- AAC0–8h (area above the blood glucose level curve, % of initial, 0–8 h) ([3]; SC injection, 5 IU/kg): 439.29 ± 30.00 %·h
- BGLmin (minimum blood glucose level, % of initial levels) ([3]; SC injection, 5 IU/kg): 22.78 ± 1.92%
- Tmin (time to reach BGLmin) ([3]; SC injection, 5 IU/kg): 3.20 ± 0.84 h
- AAC0–8h (area above the blood glucose level curve, % of initial, 0–8 h) ([3]; oral gavage, 50 IU/kg): –44.47 ± 38.33 %·h
- BGLmin (minimum blood glucose level, % of initial levels) ([3]; oral gavage, 50 IU/kg): 97.92 ± 1.23%
- Tmin (time to reach BGLmin) ([3]; oral gavage, 50 IU/kg): 2.75 ± 0.25 h
- antidiabetic effects (blood glucose level versus time) ([3]; oral, 50 IU/kg): negligible
